# Data: PubChem BioAssay (NCI)
#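 Cells were grown in 96-well plates and exposed to each compound for 48 hours at five concentrations; endpoints were interpolated linearly between bracketing concentrations, or set to the highest concentration if not reached. TGI is the concentration that stops growth completely.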
# Assays:
# Experiment in all cases: growth of human tumour cells (NCI), 48 h
# 786-0 renal = test system: 786-0 renal
# A498 renal = test system: A498 renal
# A549 NSCLC = test system: A549 NSCLC
# ACHN renal = test system: ACHN renal
# BT-549 breast = test system: BT-549 breast
# CAKI-1 renal = test system: CAKI-1 renal
# CCRF-CEM leukemia = test system: CCRF-CEM leukemia
# COLO 205 colon = test system: COLO 205 colon
# DU-145 prostate = test system: DU-145 prostate
# EKVX NSCLC = test system: EKVX NSCLC
# HCC-2998 colon = test system: HCC-2998 colon
# HCT-116 colon = test system: HCT-116 colon
# HCT-15 colon = test system: HCT-15 colon
# HL-60(TB) leukemia = test system: HL-60(TB) leukemia
# HOP-62 NSCLC = test system: HOP-62 NSCLC
# HOP-92 NSCLC = test system: HOP-92 NSCLC
# HS 578T breast = test system: HS 578T breast
# HT29 colon = test system: HT29 colon
# IGROV1 ovarian = test system: IGROV1 ovarian
# K-562 leukemia = test system: K-562 leukemia
# KM12 colon = test system: KM12 colon
# M14 melanoma = test system: M14 melanoma
# MALME-3M melanoma = test system: MALME-3M melanoma
# MCF7 breast = test system: MCF7 breast
# MDA-MB-231 breast = test system: MDA-MB-231 breast
# MDA-MB-435 = test system: MDA-MB-435
# MDA-N = test system: MDA-N
# MOLT-4 leukemia = test system: MOLT-4 leukemia
# NCI-H226 lung = test system: NCI-H226 lung
# NCI-H23 lung = test system: NCI-H23 lung
# NCI-H460 lung = test system: NCI-H460 lung
# NCI-H522 lung = test system: NCI-H522 lung
# NCI/ADR-RES ovarian = test system: NCI/ADR-RES ovarian
# OVCAR-3 ovarian = test system: OVCAR-3 ovarian
# OVCAR-4 ovarian = test system: OVCAR-4 ovarian
# OVCAR-5 ovarian = test system: OVCAR-5 ovarian
# OVCAR-8 ovarian = test system: OVCAR-8 ovarian
# PC-3 prostate = test system: PC-3 prostate
# RPMI-8226 leukemia = test system: RPMI-8226 leukemia
# RXF 393 renal = test system: RXF 393 renal
# SF-268 CNS = test system: SF-268 CNS
# SF-295 CNS = test system: SF-295 CNS
# SF-539 CNS = test system: SF-539 CNS
# SK-MEL-2 melanoma = test system: SK-MEL-2 melanoma
# SK-MEL-28 melanoma = test system: SK-MEL-28 melanoma
# SK-MEL-5 melanoma = test system: SK-MEL-5 melanoma
# SK-OV-3 ovarian = test system: SK-OV-3 ovarian
# SN12C renal = test system: SN12C renal
# SNB-19 CNS = test system: SNB-19 CNS
# T-47D breast = test system: T-47D breast
# TK-10 renal = test system: TK-10 renal
# U251 CNS = test system: U251 CNS
# UACC-257 melanoma = test system: UACC-257 melanoma
# UACC-62 melanoma = test system: UACC-62 melanoma
# UO-31 renal = test system: UO-31 renal
# LOX IMVI melanoma = test system: LOX IMVI melanoma
# SNB-75 CNS = test system: SNB-75 CNS
# SW-620 colon = test system: SW-620 colon
structure (smiles),measurement,setting,value
Cc1cc(S(=O)(=O)/N=C(/C(=C=[N-])C#N)[n+]2ccc(N(C)C)cc2)c(SCC(=O)O)cc1Cl,TGI,786-0 renal,> 100 µM
same,TGI,A498 renal,> 100 µM
same,TGI,A549 NSCLC,> 100 µM
same,TGI,ACHN renal,> 100 µM
same,TGI,BT-549 breast,> 100 µM
same,TGI,CAKI-1 renal,> 100 µM
same,TGI,CCRF-CEM leukemia,> 100 µM
same,TGI,COLO 205 colon,> 100 µM
same,TGI,DU-145 prostate,> 100 µM
same,TGI,EKVX NSCLC,> 100 µM
same,TGI,HCC-2998 colon,> 100 µM
same,TGI,HCT-116 colon,> 100 µM
same,TGI,HCT-15 colon,> 100 µM
same,TGI,HL-60(TB) leukemia,> 100 µM
same,TGI,HOP-62 NSCLC,> 100 µM
same,TGI,HOP-92 NSCLC,70.4 µM
same,TGI,HS 578T breast,> 100 µM
same,TGI,HT29 colon,> 100 µM
same,TGI,IGROV1 ovarian,> 100 µM
same,TGI,K-562 leukemia,> 100 µM
same,TGI,KM12 colon,> 100 µM
same,TGI,M14 melanoma,> 100 µM
same,TGI,MALME-3M melanoma,64.5 µM
same,TGI,MCF7 breast,> 100 µM
same,TGI,MDA-MB-231 breast,> 100 µM
same,TGI,MDA-MB-435,> 100 µM
same,TGI,MDA-N,> 100 µM
same,TGI,MOLT-4 leukemia,> 100 µM
same,TGI,NCI-H226 lung,> 100 µM
same,TGI,NCI-H23 lung,> 100 µM
same,TGI,NCI-H460 lung,> 100 µM
same,TGI,NCI-H522 lung,> 100 µM
same,TGI,NCI/ADR-RES ovarian,> 100 µM
same,TGI,OVCAR-3 ovarian,> 100 µM
same,TGI,OVCAR-4 ovarian,> 100 µM
same,TGI,OVCAR-5 ovarian,> 100 µM
same,TGI,OVCAR-8 ovarian,> 100 µM
same,TGI,PC-3 prostate,> 100 µM
same,TGI,RPMI-8226 leukemia,> 100 µM
same,TGI,RXF 393 renal,> 100 µM
same,TGI,SF-268 CNS,> 100 µM
same,TGI,SF-295 CNS,> 100 µM
same,TGI,SF-539 CNS,> 100 µM
same,TGI,SK-MEL-2 melanoma,> 100 µM
same,TGI,SK-MEL-28 melanoma,> 100 µM
same,TGI,SK-MEL-5 melanoma,> 100 µM
same,TGI,SK-OV-3 ovarian,> 100 µM
same,TGI,SN12C renal,> 100 µM
same,TGI,SNB-19 CNS,> 100 µM
same,TGI,T-47D breast,> 100 µM
same,TGI,TK-10 renal,> 100 µM
same,TGI,U251 CNS,> 100 µM
same,TGI,UACC-257 melanoma,> 100 µM
same,TGI,UACC-62 melanoma,> 100 µM
same,TGI,UO-31 renal,> 100 µM
OCCOCn1nncc1Cn1ncc2c(SCc3ccccc3)ncnc21,TGI,786-0 renal,> 100 µM
same,TGI,A498 renal,> 100 µM
same,TGI,A549 NSCLC,> 100 µM
same,TGI,ACHN renal,> 100 µM
same,TGI,BT-549 breast,> 100 µM
same,TGI,CAKI-1 renal,> 100 µM
same,TGI,COLO 205 colon,> 100 µM
same,TGI,DU-145 prostate,> 100 µM
same,TGI,EKVX NSCLC,> 100 µM
same,TGI,HCC-2998 colon,> 100 µM
same,TGI,HCT-116 colon,> 100 µM
same,TGI,HCT-15 colon,> 100 µM
same,TGI,HL-60(TB) leukemia,53.5 µM
same,TGI,HOP-62 NSCLC,> 100 µM
same,TGI,HOP-92 NSCLC,> 100 µM
same,TGI,HS 578T breast,> 100 µM
same,TGI,HT29 colon,> 100 µM
same,TGI,IGROV1 ovarian,> 100 µM
same,TGI,K-562 leukemia,> 100 µM
same,TGI,KM12 colon,> 100 µM
same,TGI,LOX IMVI melanoma,> 100 µM
same,TGI,M14 melanoma,> 100 µM
same,TGI,MALME-3M melanoma,> 100 µM
same,TGI,MCF7 breast,> 100 µM
same,TGI,MDA-MB-231 breast,> 100 µM
same,TGI,MDA-MB-435,> 100 µM
same,TGI,MDA-N,> 100 µM
same,TGI,MOLT-4 leukemia,34 µM
same,TGI,NCI-H226 lung,> 100 µM
same,TGI,NCI-H23 lung,> 100 µM
same,TGI,NCI-H460 lung,> 100 µM
same,TGI,NCI-H522 lung,> 100 µM
same,TGI,NCI/ADR-RES ovarian,> 100 µM
same,TGI,OVCAR-3 ovarian,> 100 µM
same,TGI,OVCAR-4 ovarian,> 100 µM
same,TGI,OVCAR-5 ovarian,> 100 µM
same,TGI,OVCAR-8 ovarian,> 100 µM
same,TGI,PC-3 prostate,> 100 µM
same,TGI,RXF 393 renal,> 100 µM
same,TGI,SF-268 CNS,> 100 µM
same,TGI,SF-295 CNS,> 100 µM
same,TGI,SF-539 CNS,> 100 µM
same,TGI,SK-MEL-2 melanoma,> 100 µM
same,TGI,SK-MEL-28 melanoma,> 100 µM
same,TGI,SK-MEL-5 melanoma,> 100 µM
same,TGI,SK-OV-3 ovarian,> 100 µM
same,TGI,SN12C renal,> 100 µM
same,TGI,SNB-19 CNS,> 100 µM
same,TGI,SNB-75 CNS,> 100 µM
same,TGI,SW-620 colon,> 100 µM
same,TGI,T-47D breast,> 100 µM
same,TGI,TK-10 renal,> 100 µM
same,TGI,U251 CNS,> 100 µM
same,TGI,UACC-257 melanoma,> 100 µM
same,TGI,UACC-62 melanoma,> 100 µM
same,TGI,UO-31 renal,> 100 µM
